24 molecules from patent publication US10377770B2 (Novartis AG, priority 2015, dated 2019) can be followed below.

This test deals with C-Raf FL (full length CRAF with Y340E and Y341E activating mutations, co-expressed with h14-3-3 zeta) (Homo sapiens (Human), UniProt P04049, Y340E/Y341E). Kind of test: In vitro Raf activity determination, AlphaScreen p-MEK readout, c-Raf (C-Raf FL). Type of test: biochemical. The conditions noted are these: c-Raf approximately 4 nM, ATP 1 μM, pre-incubation 60 minutes, reaction 1 hour. The essentials:
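Phosphorylation of kinase-dead biotinylated MEK1 (~10 nM) by C-Raf FL (~4 nM) read by AlphaScreen luminescence with anti-phospho-MEK1/2 after EDTA stop. ATP was 1 μM, with a 1 h reaction at room temperature. Compounds were pre-incubated with enzyme and substrate for 60 min in Tris/MgCl2 buffer, pH 7.5.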

Molecules are shown by their SMILES.

Chain of C-Raf FL (full length CRAF with Y340E and Y341E activating mutations, co-expressed with h14-3-3 zeta) (P04049 whole entry Y340E/Y341E): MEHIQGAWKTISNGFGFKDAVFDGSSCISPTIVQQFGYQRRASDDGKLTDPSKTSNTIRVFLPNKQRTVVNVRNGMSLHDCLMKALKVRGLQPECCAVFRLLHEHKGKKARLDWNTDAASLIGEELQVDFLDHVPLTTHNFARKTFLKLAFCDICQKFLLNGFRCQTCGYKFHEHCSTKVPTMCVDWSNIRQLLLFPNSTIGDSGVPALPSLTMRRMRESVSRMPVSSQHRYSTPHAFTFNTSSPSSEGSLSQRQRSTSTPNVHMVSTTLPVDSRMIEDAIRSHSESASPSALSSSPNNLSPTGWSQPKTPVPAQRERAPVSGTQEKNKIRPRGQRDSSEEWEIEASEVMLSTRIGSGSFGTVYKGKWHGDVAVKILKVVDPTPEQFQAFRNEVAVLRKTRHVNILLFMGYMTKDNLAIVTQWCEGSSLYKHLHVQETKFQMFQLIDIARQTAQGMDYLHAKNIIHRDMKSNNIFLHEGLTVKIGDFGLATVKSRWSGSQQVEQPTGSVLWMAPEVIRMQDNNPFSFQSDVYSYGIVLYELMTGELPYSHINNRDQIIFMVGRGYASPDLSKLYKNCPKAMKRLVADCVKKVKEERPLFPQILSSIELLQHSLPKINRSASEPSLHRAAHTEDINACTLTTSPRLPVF
Chain of C-Raf FL (full length CRAF with Y340E and Y341E activating mutations, co-expressed with h14-3-3 zeta) (P63104 whole entry partner): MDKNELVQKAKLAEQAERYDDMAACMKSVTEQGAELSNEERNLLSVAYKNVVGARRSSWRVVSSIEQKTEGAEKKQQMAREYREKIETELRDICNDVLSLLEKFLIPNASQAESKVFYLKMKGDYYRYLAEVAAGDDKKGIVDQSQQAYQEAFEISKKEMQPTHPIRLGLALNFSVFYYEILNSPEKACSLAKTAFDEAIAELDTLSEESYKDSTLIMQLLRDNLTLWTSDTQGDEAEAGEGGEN

`Cc1ccc(NC(=O)c2ccnc(C(C)(C)F)c2)cc1-c1cc2n(c(=O)c1)CC[C@H]1CCOCCN21` [Example 417, (S)-2-(2-fluoropropan-2-yl)-N-(4-methyl-3-(9-oxo-1,2,5,5a,6,7-hexahydro-4H,9H-pyrido[2′,1′:2,3]pyrimido[1,6-d][1,4]oxazepin-11-yl)phenyl)isonicotinamide] registered an IC50 of 500 pM.
Under `Cc1ncc(NC(=O)c2ccnc(C(F)(F)F)c2)cc1-c1ccc2c(c1)N1CCOCC[C@H]1C[C@H]2O` [Example 442, N-(5-((5aS,7R)-7-hydroxy-1,2,5,5a,6,7-hexahydro-4H-[1,4]oxazepino [4,5-a]quinolin-10-yl)-6-methylpyridin-3-yl)-2-(trifluoromethyl) isonicotinamide] stands 700 pM.
For `CCN1C[C@@H]2COCC[C@H]2c2cc(-c3cc(NC(=O)c4ccnc(C(C)(F)F)c4)ccc3C)cnc21` [Example 292, 2-(1,1-difluoroethyl)-N-(3-((4aR, 10bR)-6-ethyl-2,4,4a,5,6,10b-hexahydro-1H-pyrano[3,4-c][1,8]naphthyridin-9-yl)-4-methylphenyl) isonicotinamide] the value was 100 pM; for `Cc1ccc(NC(=O)c2ccnc(C(F)(F)F)c2)cc1-c1ccc2c(c1)N1CCOCC1C(CO)C2` (racemic) [Example 59, (rac)-N-(3-(5-(hydroxymethyl)-1,2,4,4a,5,6-hexahydro-[1,4]oxazino[4,3-a]quinolin-9-yl)-4-methylphenyl)-2-(trifluoromethyl)isonicotinamide], 8.9 pM.
The molecule `Cc1ccc(NC(=O)c2ccnc(C(C)(F)F)c2)cc1-c1cnc2c(c1)N1CCOCC1C(CO)(CO)C2` (racemic) [Example 158, rac-N-(3-(5,5-bis(hydroxymethyl)-yl)-1,2,4,4a,5,6-hexahydro-[1,4]oxazino[4,3-a][1,5]naphthyridin-9-yl)-4-methylphenyl)-2-(1,1-difluoroethyl)isonicotinamide] showed an IC50 of 10 pM.
Under `Cc1ccc(NC(=O)c2ccnc(C(F)(F)F)c2)cc1-c1cnc2c(c1)N1CCOC[C@H]1C(F)(F)[C@H]2O` [Example 167, N-(3-((4aS,6S)-5,5-difluoro-6-hydroxy-1,2,4,4a,5,6-hexahydro-[1,4]oxazino[4,3-a][1,5]naphthyridin-9-yl)-4-methylphenyl)-2-(trifluoromethyl)isonicotinamide] stands 77 pM; under `Cc1ncc(NC(=O)c2ccnc(C(C)(F)F)c2)cc1-c1ccc2c(c1)N1CCOC[C@@H]1[C@@](F)(CO)C2` [Example 85, 2-(1,1-difluoroethyl)-N-(5-((4aR,5R)-5-fluoro-5-(hydroxymethyl)-1,2,4,4a,5,6-hexahydro-[1,4]oxazino[4,3-a]quinolin-9-yl)-6-methylpyridin-3-yl)isonicotinamide], 70 pM.
For `Cc1ncc(NC(=O)c2cccc(C(F)(F)F)c2)cc1-c1cnc2c(c1)[C@@H]1CCOC[C@H]1C(=O)N2CC(F)F` [Example 266, N-(5-((4aS, 10bR)-6-(2,2-difluoroethyl)-5-oxo-2,4,4a,5,6,10b-hexahydro-1H-pyrano[3,4-c][1,8]naphthyridin-9-yl)-6-methylpyridin-3-yl)-3-(trifluoromethyl) benzamide] the value was 300 pM; for `Cc1ccc(NC(=O)c2ccnc(C(C)(F)F)c2)cc1-c1cnc2c(c1)N1CCOC[C@@H]1[C@@H](C(C)(C)O)C2` [Example 456, 2-(1,1-difluoroethyl)-N-(3-((4aS,5S)-5-(2-hydroxypropan-2-yl)-1,2,4,4a,5,6-hexahydro-[1,4]oxazino[4,3-a][1,5]naphthyridin-9-yl)-4-methylphenyl) isonicotinamide], 700 pM; for `CCN1C(=O)C2COCC[C@@]2(C)c2cc(-c3cc(NC(=O)c4cncc(C(F)(F)F)c4)ccc3C)cnc21` (stereo in doubt) [Example 346, N-(3-((4a,10b-trans)-6-ethyl-10b-methyl-5-oxo-1,4,4a,5,6,10b-hexahydro-2H-pyrano[3,4-c][1,8]naphthyridin-9-yl)-4-methylphenyl)-5-(trifluoromethyl)nicotinamide], 100 pM.
For `Cc1ccc(NC(=O)c2ccnc(C(F)(F)F)c2)cc1-c1cnc2c(c1)C1C3COCC3C1C(=O)N2CCO` (stereo not drawn) [Example 278, N-(3-(5-(2-hydroxyethyl)-6-oxo-5,6,6a,6b,7,9,9a,9b-octahydrofuro[3′,4′: 3,4]cyclobuta[1,2-c][1,8]naphthyridin 2-yl)-4-methylphenyl)-2-(trifluoromethyl) isonicotinamide] the value was 300 pM.
In the case of `Cc1ccc(NC(=O)c2ccnc(C(C)(F)F)c2)cc1-c1ccc2c(c1)N1CCOC[C@H]1C[C@@]2(C)O` [Example 24, 2-(1,1-difluoroethyl)-N-(3-((4aR,6R)-6-hydroxy-6-methyl-1,2,4,4a,5,6-hexahydro-[1,4]oxazino[4,3-a]quinolin-9-yl)-4-methylphenyl)isonicotinamide], the IC50 amounted to 49 pM.
For `CCN1C(=O)C[C@@H]2COCCN2c2cc(-c3cc(NC(=O)c4ccnc(C(F)(F)F)c4)ccc3C)cnc21` [Example 129, (R)-N-(3-(7-Ethyl-6-oxo-1,2,4a,5,6,7-hexahydro-4H-[1,4]oxazino[4,3-d]pyrido[2,3-b][1,4]diazepin-10-yl)-4-methylphenyl)-2-(trifluoromethyl)isonicotinamide] the value was 180 pM; for `Cc1ccc(NC(=O)c2ccnc(C(F)(F)F)c2)cc1-c1cnc2c(c1)C1C3COCC3C1C(=O)N2CCO` (stereo not drawn) [Example 281, N-(3-(5-(2-hydroxyethyl)-6-oxo-5,6,6a,6b,7,9,9a,9b-octahydrofuro[3′,4′: 3,4]cyclobuta[1,2-c][1,8]naphthyridin-2-yl)--4-methylphenyl)-2-(trifluoromethyl) isonicotinamide], 200 pM.
`CCN1C(=O)O[C@H]2COCC[C@@H]2c2cc(-c3cc(NC(=O)c4ccnc(C(F)(F)F)c4)ccc3C)cnc21` [Example 305, N-(3-((4aR,11bR)-7-ethyl-6-oxo-2,4,4a,6,7,11b-hexahydro-1H-pyrano[4,3-f]pyrido[2,3-d][1,3]oxazepin-10-yl)-4-methylphenyl)-2-(trifluoromethyl) isonicotinamide] gave an IC50 of 300 pM.
`Cc1ncc(NC(=O)c2ccnc(C(C)(F)F)c2)cc1-c1ccc2c(c1)N1CCOCC[C@H]1C[C@H]2O` [Example 98, 2-(1,1-difluoroethyl)-N-(5-((5aS,7R)-7-hydroxy-1,2,5,5a,6,7-hexahydro-4H-[1,4]oxazepino[4,5-a]quinolin-10-yl)-6-methylpyridin-3-yl)isonicotinamide] showed an IC50 of 560 pM.
For `Cc1ccc(NC(=O)c2ccnc(C(C)(F)F)c2)cc1-c1ccc2c(c1)N1CCOC[C@@H]1[C@](F)(CO)C2` [Example 372, 2-(1,1-difluoroethyl)-N-(3-((4aR,5S)-5-fluoro-5-(hydroxymethyl)-1,2,4,4a,5,6-hexahydro-[1,4]oxazino[4,3-a]quinolin-9-yl)-4-methylphenyl)isonicotinamide] the value was 300 pM; for `Cc1ncc(NC(=O)c2cccc(C(F)(F)F)c2)cc1-c1cnc2c(c1)N1CCOC[C@H]1C[C@@H]2O` (racemic) [Example 38, (rac)-(cis)-N-(5-(6-hydroxy-1,2,4,4a,5,6-hexahydro-[1,4]oxazino[4,3-a][1,5]naphthyridin-9-yl)-6-methylpyridin-3-yl)-3-(trifluoro-methyl)benzamide], 30 pM; for `Cc1ncc(NC(=O)c2cccc(C(F)(F)F)c2)cc1-c1cc(F)c2c(c1)N1CCOC[C@H]1[C@](F)(CO)C2` [Example 421, N-(5-((4aS,5S)-5,7-difluoro-5-(hydroxymethyl)-1,2,4,4a,5,6-hexahydro-[1,4]oxazino[4,3-a]quinolin-9-yl)-6-methylpyridin-3-yl)-3-(trifluoromethyl)benzamide], 800 pM.
Under `Cc1ccc(NC(=O)c2ccnc(C(F)(F)F)c2)cc1-c1ccc2c(=O)c(C(=O)O)c3n(c2c1)CCOC3` [Example 2, 9-(2-methyl-5-(2-(trifluoromethyl)isonicotinamido)phenyl)-6-oxo-1,2,4,6-tetrahydro-[1,4]oxazino[4,3-a]quinoline-5-carboxylic Acid] stands 136 pM.
For `Cc1ccc(NC(=O)c2ccnc(C(F)(F)F)c2)cc1-c1ccc2c(c1)N1CCOC[C@@H]1[C@](F)(CO)C2` [Example 399, N-(3-((4aR,5S)-5-fluoro-5-(hydroxymethyl)-1,2,4,4a,5,6-hexahydro-[1,4]oxazino[4,3-a]quinolin-9-yl)-4-methylphenyl)-2-(trifluoromethyl)isonicotinamide] the value was 300 pM; for `Cc1ncc(NC(=O)c2ccnc(C(C)(C)F)c2)cc1-c1cnc2c(c1)[C@@H]1CCOC[C@H]1C(=O)N2CCO` [Example 260, 2-(2-fluoropropan-2-yl)-N-(5-((4aS, 10bR)-66-(2-hydroxyethyl)-5-oxo-2,4,4a,5,6,10b-hexahydro-1H-pyrano[3,4-c][1,8]naphthyridin-9-yl)-6-methylpyridin-3-yl)isonicotinamide], 100 pM; for `Cc1ccc(NC(=O)c2ccnc(C(F)(F)F)c2)cc1-c1cnc2c(c1)N1CCOC[C@H]1C[C@@]2(O)C(F)(F)F` (racemic) [Example 170, rac-cis-N-(3-(6-hydroxy-6-(trifluoromethyl)-1,2,4,4a,5,6-hexahydro-[1,4]oxazino[4,3-a][1,5]naphthyridin-9-yl)-4-methylphenyl)-2-(trifluoromethyl)isonicotinamide], 25 pM.
With `CCN1C(=O)C2(F)COCC[C@@H]2c2cc(-c3cc(NC(=O)c4ccnc(C(F)(F)F)c4)ccc3C)cnc21` (stereo partly drawn) [Example 339, N-(3-((10bR)-6-ethyl-4a-fluoro-5-oxo-2,4,4a,5,6,10b-hexahydro-1H-pyrano[3,4-c][1,8]naphthyridin-9-yl)-4-methylphenyl)-2-(trifluoromethyl) isonicotinamide], half-maximal inhibition (IC50) required 500 pM.
